Data set [1] has as its system undifferentiated cancer stem cells. The experiment in a line: Effect with altered degree of induction of differentiation by serum. The class given is cell-based, mice. The conditions noted are these: serum-free vs serum-containing medium, 4 days, FIG. 9. An excerpt: Using the method similar to Example 1, the degree of induction of differentiation was altered by changing the culture mediums, to observe the effect thereby. Specifically, a group cultured in a serum-free culture medium of Example 1 for consecutive 4 days; a group cultured in a serum-free culture medium for 3 days, and then cultured in a serum-containing culture medium for 1 day; a group cultured in a serum-containing culture medium for 3 days, and then cultured in a serum-free culture medium for 1 day; and the remaining one group cultured in a serum-containing culture medium for 4 days; were prepared. According to such culturing, the degree of induction of differentiation by serum was altered and the effect of doranidazole was confirmed.

The test system of data set [2] is cancer stem cells. The experiment in a line: ATP levels in cancer stem cells. The data set is classed as cell-based, mice. The following applies: 21% oxygen (normoxic) and 1% oxygen (hypoxic), FIG. 6. Here is the method:
(§1) Since the cell cycle was arrested in the G1 phase, a decrease in energy metabolism was suspected. ATP levels under 21% oxygen (normoxic condition) and 1% oxygen (hypoxic condition) were measured using the same cells as in Example 1. […] From this, suppression of mitochondrial function was suspected, and so, mitochondrial function was evaluated by extracellular flux analysis.

The conditions of data set [3]: in vivo; cited from earlier work.
Data set [4] concerns reactive oxygen species (ROS) in mitochondria. The data set is described as follows: Mito Sox staining, mitochondrial ROS by flow cytometry. The conditions noted are these: FIG. 8. The class given is cell-based, mice. An excerpt: Using Mito Sox staining, reactive oxygen species (ROS) in mitochondria was quantified by flow cytometry for the cells cultured according to Example 1, with or without doranidazole, misonidazole, or metronidazole.
For orientation: In flow cytometry, cells or beads pass a laser one at a time.

Another data set concerns mitochondrial complex II. The data set is described as follows: Expression levels of mitochondrial complex I to V by electrophoresis and Western Blot. The data set is classed as cell-based, mice. The conditions noted are these: protein extracted from cells of Example 1, FIG. 7. Here is the method: Furthermore, protein was extracted from cells of Example 1, and the expression levels of mitochondrial complex I to V were measured by electrophoresis and Western Blot.

For data set [5], the system named is cancer stem cells. The experiment in a line: Radiation-induced double-strand break, Hoechst 33324 and γH2AX double staining. The data set is classed as cell-based, mice. The conditions noted are these: irradiated, hypoxic condition, FIG. 10. From the text: Cells cultured according to the method of Example 1, with or without doranidazole, were irradiated, followed by double staining with Hoechst 33324 and γH2AX, and then double-strand break was quantified.

Data set [6] deals with mitochondria in cancer stem cells. The experiment in a line: Mitochondrial function by extracellular flux analysis. The class given is cell-based, mice. The following applies: 21% oxygen (normoxic) and 1% oxygen (hypoxic), FIG. 6. Here is the method:
as §1

Data set [7] has as its system cancer stem cells (spheroid-forming cells). The data set is described as follows: Spheroid culture of cancer stem cells in 96-well plate with analyte. The data set is classed as cell-based, mice. The following applies: various concentration of analytes, medium without differentiation-inducing component, FIG. 2. Here is the method:
(§2) In accordance with the literature ([…]. et. al., Neoplasia, 13(9) 2011, 784 to 791), the subventricular zone was resected from Ink4a/Arf deficient mice and subjected to trypsin treatment to obtain spheroid-forming cells. The resulting spheroids were cultured in a culture medium containing no differentiation-inducing component (DMEM/F12 in which 20 ng/mL of EGF, 20 ng/mL of FGF, B27 supplement in which vitamin A was removed, 200 ng/mL of heparan sulfate, 100 U/mL of penicillin, and 100 U/mL of streptomycin were added) in a flow of 5% carbon dioxide at 37° C. Then, a constitutively active, mutated form of H-Ras and, as necessary, reporter cassettes for detecting, for example, fluorescent signals or selection marker for cell selection, for example, drug-resistant cassettes, were incorporated into cancer stem cells for transformation, and cultured to obtain spheroid-forming cells. These cells were transplanted to the brains of C57BL/6 mice, then the formed brain tumors were resected and subjected to trypsin treatment to obtain cells. Drug-resistant or fluorescent reporter-positive cells were sorted, and then cell cycle markers were introduced into part of the cells. Thus-obtained spheroid-forming cells were cultured under the above-described culturing condition, and used as a sample. […]

The test system is the same in data set [8]. The data set is described as follows: Monolayer culture of cancer stem cells, cell cycle and growth. The class given is cell-based, mice. The following applies: various concentrations, FIG. 3. Here is the method:
as §2, with “sample. The above cells were subjected to monolayer culture.” for “sample.”

The test system of data set [9] is cancer stem cells (spheroid). The data set is described as follows: Spheroid cell death monitored with propidium iodide (PI). The class given is cell-based, mice. The conditions noted are these: for cell death (PI positive area): spheroid, PI added, monitored over time, FIG. 4. Here is the method:
In accordance with the literature (Sampetrean O. et. al., Neoplasia, 13(9) 2011, 784 to 791), the subventricular zone was resected from Ink4a/Arf deficient mice and subjected to trypsin treatment to obtain spheroid-forming cells. The resulting spheroids were cultured in a culture medium containing no differentiation-inducing component (DMEM/F12 in which 20 ng/mL of EGF, 20 ng/mL of FGF, B27 supplement in which vitamin A was removed, 200 ng/mL of heparan sulfate, 100 U/mL of penicillin, and 100 U/mL of streptomycin were added) in a flow of 5% carbon dioxide at 37° C. […] These cells were transplanted to the brains of C57BL/6 mice, then the formed brain tumors were resected and subjected to trypsin treatment to obtain cells. Drug-resistant or fluorescent reporter-positive cells were sorted, and then cell cycle markers were introduced into part of the cells. Thus-obtained spheroid-forming cells were cultured under the above-described culturing condition, and used as a sample.

Results on four compounds are retold here after US11400076B2, “Cancer stem cell inhibitor” (KEIO UNIVERSITY, priority 2017, dated 2022).

Structures are written as SMILES. Bounds are passed on as bounds.

One may read the LD50 as the dose expected to kill half of the subjects tested.

For the compound `O=[N+]([O-])c1nccn1COC(CO)C(O)CO` (centres unmarked) [doranidazole], in data set [1], the “effect depending on degree of induction of differentiation by serum” value is “when the degree of induction of differentiation by serum is low, the effect of doranidazole is remarkable”. For the same compound, in the data set with cancer stem cells [2], the “ATP content of cancer stem cells” value was “decreased”. Moreover, the LD50 in data set [3] is not below 5000 mg/kg. In [4], the ROS in mitochondria entry is on record as “significantly increases”. In the data set with mitochondrial complex II, the “expression of complex II” value was “remarkably decreased”. The radiation-induced double-strand break result in the data set with cancer stem cells [5] is listed as “significantly enhances”. In addition, in [6], the “oxygen consumption of mitochondria” value is recorded as “decreased depending on the concentration” and the “reserve capacity of mitochondria” value is on record as “decreased depending on the concentration”. Further, the growth of spheroids entry in data set [7] is recorded as “suppresses the growth of spheroids”. Also, in [8], the cell cycle entry was “arrests the cell cycle in the G1 phase” and the growth entry was “suppresses growth”. The “type of cell death” value in data set [9] (inhibitor comparison, FIG. 5) is listed as “ferroptosis”. Also, in data set [9], the “cell death (PI positive area)” value is on record as “cell death is induced by doranidazole in dose dependent manner”.
As to `Cc1ncc([N+](=O)[O-])n1CCO` [metronidazole], in data set [4], the ROS in mitochondria entry was “not observed”. Further, the “cell death (PI positive area)” value in data set [9] was “no cell death was observed”.
On to `CCOC(=O)c1ccc(NC2CCCCC2)c(N)c1` [ferrostatin 1], for which the “suppression of doranidazole-induced cell death” value in data set [9] (compared to DMSO, necrostatin 1 and Z-VAD-FMK, FIG. 5) is “significantly suppressed”.
As to `COCC(O)Cn1ccnc1[N+](=O)[O-]` (centres unmarked) [misonidazole], the LD50 result in [3] is “about 1 g/kg”. The ROS in mitochondria result in data set [4] was “significantly increases”. The “expression of complex II” value in the data set with mitochondrial complex II is “remarkably decreased”. Further, the “cell death (PI positive area)” value in data set [9] is “the cell death was similarly confirmed”.
